SMILES strings stand for the structures.

Experimental findings from ChEMBL document CHEMBL1136073, “2,4-Dicarboxy-pyrroles as selective non-competitive mGluR1 antagonists: further characterization of 3,5-dimethyl pyrrole-2,4-dicarboxylic acid 2-propyl ester 4-(1,2,2-trimethyl-propyl) ester and structure-activity relationships” (Bioorg Med Chem Lett, 2003) are described below.

Format in all cases: cell-based
The target of experiment [1] is T1, Metabotropic glutamate receptor 1 (Rattus norvegicus, UniProt P23385). The experiment in a line: In vitro inhibition of rat metabotropic glutamate receptor 1 in CHO cells using the CDP-DAG accumulation method.
T1 sequence (P23385 whole entry): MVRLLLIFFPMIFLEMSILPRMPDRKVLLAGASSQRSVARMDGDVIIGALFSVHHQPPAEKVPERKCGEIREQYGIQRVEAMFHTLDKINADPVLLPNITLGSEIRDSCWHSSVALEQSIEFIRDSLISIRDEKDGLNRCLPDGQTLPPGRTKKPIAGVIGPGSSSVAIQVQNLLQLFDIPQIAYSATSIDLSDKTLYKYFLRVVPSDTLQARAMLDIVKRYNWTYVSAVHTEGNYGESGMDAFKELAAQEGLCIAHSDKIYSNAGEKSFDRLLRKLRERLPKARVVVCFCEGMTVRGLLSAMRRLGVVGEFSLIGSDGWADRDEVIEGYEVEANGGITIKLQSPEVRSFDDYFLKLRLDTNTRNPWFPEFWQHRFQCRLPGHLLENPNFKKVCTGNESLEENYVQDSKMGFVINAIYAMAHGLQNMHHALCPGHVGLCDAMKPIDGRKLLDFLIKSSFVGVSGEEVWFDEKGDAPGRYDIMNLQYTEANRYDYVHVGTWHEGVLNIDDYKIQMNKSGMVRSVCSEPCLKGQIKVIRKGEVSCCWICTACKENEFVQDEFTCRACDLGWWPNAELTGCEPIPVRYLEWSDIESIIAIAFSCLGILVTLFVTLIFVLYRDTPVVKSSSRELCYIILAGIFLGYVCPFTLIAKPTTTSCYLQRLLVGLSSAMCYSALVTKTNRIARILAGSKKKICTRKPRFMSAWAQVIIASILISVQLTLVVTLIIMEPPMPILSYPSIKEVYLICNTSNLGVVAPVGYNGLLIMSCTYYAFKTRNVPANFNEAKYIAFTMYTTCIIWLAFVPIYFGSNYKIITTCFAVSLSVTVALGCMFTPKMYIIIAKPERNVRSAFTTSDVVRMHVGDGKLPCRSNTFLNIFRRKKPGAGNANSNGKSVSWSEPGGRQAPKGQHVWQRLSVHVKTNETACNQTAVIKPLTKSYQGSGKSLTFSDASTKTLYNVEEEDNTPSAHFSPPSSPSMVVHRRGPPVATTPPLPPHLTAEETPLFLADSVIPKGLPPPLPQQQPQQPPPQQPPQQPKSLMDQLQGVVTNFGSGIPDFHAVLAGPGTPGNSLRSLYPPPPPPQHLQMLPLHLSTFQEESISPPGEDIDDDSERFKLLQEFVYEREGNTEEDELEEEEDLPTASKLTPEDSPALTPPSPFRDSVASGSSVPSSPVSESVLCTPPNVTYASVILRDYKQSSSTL
The target of experiment [2] is T1, Metabotropic glutamate receptor 1. The experiment can be described thus: In vitro inhibition of rat Metabotropic glutamate receptor 1 in CHO cells using the CDP-DAG accumulation method: Not active uM.
Experiment [3] shares this target. The experiment in a line: In vitro inhibitory concentration required against rat mGluR1a in CHO cells using the CDP-DAG accumulation method: Not active uM.
Experiment [4] shares this target. The experiment can be described thus: In vitro inhibitory concentration required against rat mGluR1a in CHO cells using the CDP-DAG accumulation method.

As to `Cc1c(C(=O)OC(C)C(C)(C)C)c[nH]c1C(=O)Oc1c(F)c(F)c(F)c(F)c1F` (stereo unspecified), the IC50 (in general, the midpoint of a concentration-inhibition curve) in experiment [1] is 0.16 µM.

For the molecule `CCCOC(=O)c1[nH]cc(C(=O)OC(C)C(C)(C)C)c1C` (stereo unspecified), the midpoint of inhibition in experiment [1], the IC50, lay at 0.004 µM.

In turn, `Cc1c(C(=O)OC(C)(C)C)c[nH]c1C(=O)OC(C)(C)C` had an IC50 in experiment [1] of 0.1 µM. This IC50 is about 25-fold higher than that of the molecule before.

In the case of `Cc1c(C(=O)OC(C)(C)C)c[nH]c1C(=O)O`, in experiment [2], the IC50 result was “Not Active”.

With `CCCOC(=O)c1[nH]c(C(=O)Sc2ccccn2)c(C(=O)OC(C)(C)C)c1C`, 3.2 µM corresponded to half-maximal inhibition in experiment [1] (IC50).

Take `Cc1c(C(=O)OC(C)(C)C)c[nH]c1C(=O)OCC1CC1`: half-maximal inhibition in experiment [1] (IC50) required 0.048 µM.

Consider `CCOC(=O)c1[nH]cc(C(=O)OC(C)(C)C)c1C`, for which the IC50 in experiment [1] was determined as 0.34 µM.

On to `CCCOC(=O)c1[nH]c(CN)c(C(=O)OC(C)(C)C)c1C`, for which the IC50 entry in experiment [2] is “Not Active”.

With `CCCOC(=O)c1c(C)c(C(=O)OC(C)(C)C)c(C)n1CCCO[Si](c1ccccc1)(c1ccccc1)C(C)(C)C`, the IC50 result in experiment [2] is given as “Not Active”.

In the case of `CCCOC(=O)c1[nH]c(C)c(C(=O)OC(C)C(C)(C)C)c1C` (stereo unspecified), half-maximal inhibition in experiment [1] (IC50) required 15.8 µM.

In experiment [1], `Cc1c(C(=O)OC(C)C(C)(C)C)c[nH]c1C(=O)OC(C)(C)C` (stereo unspecified) displayed an IC50 of 0.017 µM.

Molecule `CCCOC(=O)c1[nH]c(C(=O)NCC2CC2)c(C(=O)OC(C)(C)C)c1C` came in with an IC50 in experiment [1] of 2.5 µM. This IC50 is about 150-fold higher than that of the molecule before.

For the molecule `CCCOC(=O)c1[nH]c(CNCc2ccccc2)c(C(=O)OC(C)(C)C)c1C`, the IC50 result in experiment [2] is on record as “Not Active”.

Regarding `CCCOC(=O)c1c(C)c(C(=O)OC(C)(C)C)c(C)n1CC(=O)O`, the IC50 result in experiment [2] is given as “Not Active”.

Regarding `Cc1c(C(=O)OC(C)(C)C)c[nH]c1C(=O)OCc1ccco1`, in experiment [1], the IC50 was found to be 1.2 µM. That is a single-digit micromolar value.

Consider `CCCOC(=O)c1c(C)c(C(=O)OC(C)(C)C)c(C)n1CN1CCCCC1`, for which the IC50 entry in experiment [2] is “Not Active”.

Regarding `CCCOC(=O)c1[nH]c(C(=O)O)c(C(=O)OC(C)(C)C)c1C`, the IC50 result in experiment [2] is on record as “Not Active”.

`CCCOC(=O)c1[nH]c(COC(C)=O)c(C(=O)OC(C)(C)C)c1C` showed an IC50 in experiment [1] of 2.7 µM.

Turning to `CCCOC(=O)c1c(C)c(C(=O)OC(C)(C)C)c(C)n1CCO[Si](c1ccccc1)(c1ccccc1)C(C)(C)C`, in experiment [2], the IC50 result was “Not Active”.

On to `Cc1c(C(=O)OC(C)(C)C)c[nH]c1C(=O)Sc1ccccn1`, for which the IC50 in experiment [1] was 3 µM.

Regarding `C=CCN1CCN(CCn2c(C)c(C(=O)OC(C)(C)C)c(C)c2C(=O)OCCC)CC1`, the IC50 entry in experiment [3] is reported as “Not Active”.

The molecule `CCCOC(=O)c1[nH]c(Cl)c(C(=O)OC(C)C(C)(C)C)c1C` (stereo unspecified) registered an IC50 in experiment [1] of 0.16 µM. In other words, the sub-micromolar range.

`CCCOC(=O)c1c(C)c(C(=O)OC(C)(C)C)c(C)n1C` had an IC50 in experiment [4] of 1 µM. This lies in the single-digit micromolar range.

As for `C=CCOC(=O)Cn1c(C)c(C(=O)OC(C)(C)C)c(C)c1C(=O)OCCC`, the IC50 in experiment [1] came to 12.6 µM.

With `CCCOC(=O)c1[nH]c(C=O)c(C(=O)OC(C)(C)C)c1C`, in experiment [1], the IC50 was 2 µM.

In turn, `CCN1CCC(OC(=O)c2[nH]cc(C(=O)OC(C)C(C)(C)C)c2C)C1` (stereo unspecified) gave an IC50 in experiment [1] of 0.26 µM.

`Cc1c(C(=O)OC(C)C(C)(C)C)c[nH]c1C(=O)OC(C)CN(C)C` (stereo unspecified) had an IC50 in experiment [1] of 0.39 µM.

In experiment [1], `CCCOC(=O)c1[nH]c(C(=O)OC)c(C(=O)OC(C)(C)C)c1C` showed an IC50 of 3.2 µM.

Molecule `CCCOC(=O)c1[nH]c(CO)c(C(=O)OC(C)(C)C)c1C` gave an IC50 in experiment [1] of 7.9 µM.

In turn, `Cc1c(C(=O)OC(C)C(C)(C)C)c[nH]c1C(=O)Oc1ccncn1` (stereo unspecified) gave an IC50 in experiment [1] of 1.45 µM.

In turn, `CCCOC(=O)c1[nH]cc(C(=O)OC(C)(C)C)c1C` had a half-inhibitory concentration (IC50) in experiment [1] of 0.075 µM.

As for `CCCOC(=O)c1c(C)c(C(=O)OC(C)(C)C)c(C)n1CC(=O)N(C)C`, the IC50 result in experiment [2] was “Not Active”.

`CCCOC(=O)c1c(C)c(C(=O)OC(C)(C)C)c(C)n1CCN1CCOCC1`: in experiment [3], the IC50 entry is recorded as “Not Active”.

Consider `CCCOC(=O)c1c(C)c(C(=O)OC(C)(C)C)c(C)n1C(=O)OC(C)(C)C`, for which the IC50 in experiment [4] stood at 2.3 µM. That is a single-digit micromolar value.

The molecule `CCCOC(=O)c1c(C)c(C(=O)OC(C)(C)C)c(C)n1CCCO` showed an IC50 in experiment [1] of 5.8 µM.

As for `Cc1c(C(=O)OC(C)C(C)(C)C)c[nH]c1C(=O)Oc1cccnc1` (stereo unspecified), in experiment [1], the IC50 is 0.72 µM.
